From patent publication US7754946B2, “Stem-regulated, plant defense promoter and uses thereof in tissue-specific expression in monocots” (The Texas A&M University System, priority 2003, dated 2010)

Test system: JAS
Assay: Microarray of JAS cDNA clones after spraying sugarcane plants with defense-inducing agents
Format: in vivo
Conditions: treated v. untreated plant
Procedure: The 251 cDNA clones used for microarray analysis in Example 1 were further used to assess the effects of defense-inducing agents on the expression of the stem-specific genes.
Total RNA was extracted from wild type sugarcane plants (3 months-old) that were sprayed with the defense-inducing agents jasmonic acid (JA) (25·mu·M in 0.05.percent.Tween 20), methyl-jasmonate (MeJA) (200·mu·M in 0.1.percent.ethanol and 0.05.percent.Tween 20) or salicylic acid (SA) (5 mM in 0.05.percent.Tween 20) for two time periods, 24 and 48 hours. The microarray including 251 cDNAs was probed with fluorescently labeled cDNAs synthesized from 1·mu·g of total amplified RNA. One cDNA probe (e.g. RNA from plant treated with a defense-inducing agent) is labeled with one dye (Cy5), and the second (e.g. RNA from untreated control plant) with another dye (Cy3)
Microarray data was analyzed using GeneSpring analysis software. Data were normalized using an endogenous constitutive gene. The normalized ratio of Cy5 v.

CC/C=C\C[C@H]1C(=O)CC[C@@H]1CC(=O)O [JA, jasmonic acid]
Cy5/Cy3 Ratios (Upregulation) for JAS (clone 2I1, JA 25 μM spray, 24 hours): 0.59 | Cy5/Cy3 Ratios (Upregulation) for JAS (clone 2I1, JA 25 μM spray, 48 hours): 2.10 | Cy5/Cy3 Ratios (Upregulation) for JAS (clone 4Q3, JA 25 μM spray, 24 hours): 0.41 | Cy5/Cy3 Ratios (Upregulation) for JAS (clone 4Q3, JA 25 μM spray, 48 hours): 2.12 | Cy5/Cy3 Ratios (Upregulation) for JAS (clone 5P22, JA 25 μM spray, 24 hours): 0.41 | Cy5/Cy3 Ratios (Upregulation) for JAS (clone 5P22, JA 25 μM spray, 48 hours): 2.10 | Cy5/Cy3 Ratios (Upregulation) for JAS (clone 6H10, JA 25 μM spray, 24 hours): 0.42 | Cy5/Cy3 Ratios (Upregulation) for JAS (clone 6H10, JA 25 μM spray, 48 hours): 2.19 | Cy5/Cy3 Ratios (Upregulation) for JAS (clone 10P7, JA 25 μM spray, 24 hours): 0.59 | Cy5/Cy3 Ratios (Upregulation) for JAS (clone 10P7, JA 25 μM spray, 48 hours): 2.10 | Cy5/Cy3 Ratios (Upregulation) for JAS (clone 12F18, JA 25 μM spray, 24 hours): 0.51 | Cy5/Cy3 Ratios (Upregulation) for JAS (clone 12F18, JA 25 μM spray, 48 hours): 1.64 | Cy5/Cy3 Ratios (Upregulation) for JAS (clone 13F16, JA 25 μM spray, 24 hours): 0.51 | Cy5/Cy3 Ratios (Upregulation) for JAS (clone 13F16, JA 25 μM spray, 48 hours): 2.21 | Cy5/Cy3 Ratios (Upregulation) for JAS (clone 17C11, JA 25 μM spray, 24 hours): 0.35 | Cy5/Cy3 Ratios (Upregulation) for JAS (clone 17C11, JA 25 μM spray, 48 hours): 2.12 | Cy5/Cy3 Ratios (Upregulation) for JAS (clone 18H16, JA 25 μM spray, 24 hours): 1.90 | Cy5/Cy3 Ratios (Upregulation) for JAS (clone 18H16, JA 25 μM spray, 48 hours): 1.40 | Cy5/Cy3 Ratios (Upregulation) for JAS (clone 20F18, JA 25 μM spray, 24 hours): 0.34 | Cy5/Cy3 Ratios (Upregulation) for JAS (clone 20F18, JA 25 μM spray, 48 hours): 2.00 | Cy5/Cy3 Ratios (Upregulation) for JAS (clone 20G16, JA 25 μM spray, 24 hours): 0.85 | Cy5/Cy3 Ratios (Upregulation) for JAS (clone 20G16, JA 25 μM spray, 48 hours): 1.30 | Cy5/Cy3 Ratios (Upregulation) for JAS (clone 24G4, JA 25 μM spray, 24 hours): 0.41 | Cy5/Cy3 Ratios (Upregulation) for JAS (clone 24G4, JA 25 μM spray, 48 hours): 1.14 | Cy5/Cy3 Ratios (Upregulation) for JAS (clone 25K14, JA 25 μM spray, 24 hours): 1.73 | Cy5/Cy3 Ratios (Upregulation) for JAS (clone 25K14, JA 25 μM spray, 48 hours): 1.65

CC/C=C\CC1C(=O)CCC1CC(=O)OC (stereo not shown) [MeJA, methyl-jasmonate]
Cy5/Cy3 Ratios (Upregulation) for JAS (clone 2I1, MeJA 200 μM spray, 24 hours): 0.27 | Cy5/Cy3 Ratios (Upregulation) for JAS (clone 2I1, MeJA 200 μM spray, 48 hours): 0.22 | Cy5/Cy3 Ratios (Upregulation) for JAS (clone 4Q3, MeJA 200 μM spray, 24 hours): 0.15 | Cy5/Cy3 Ratios (Upregulation) for JAS (clone 4Q3, MeJA 200 μM spray, 48 hours): 0.18 | Cy5/Cy3 Ratios (Upregulation) for JAS (clone 5P22, MeJA 200 μM spray, 24 hours): 0.16 | Cy5/Cy3 Ratios (Upregulation) for JAS (clone 5P22, MeJA 200 μM spray, 48 hours): 0.17 | Cy5/Cy3 Ratios (Upregulation) for JAS (clone 6H10, MeJA 200 μM spray, 24 hours): 0.15 | Cy5/Cy3 Ratios (Upregulation) for JAS (clone 6H10, MeJA 200 μM spray, 48 hours): 0.19 | Cy5/Cy3 Ratios (Upregulation) for JAS (clone 10P7, MeJA 200 μM spray, 24 hours): 0.13 | Cy5/Cy3 Ratios (Upregulation) for JAS (clone 10P7, MeJA 200 μM spray, 48 hours): 0.15 | Cy5/Cy3 Ratios (Upregulation) for JAS (clone 12F18, MeJA 200 μM spray, 24 hours): 0.20 | Cy5/Cy3 Ratios (Upregulation) for JAS (clone 12F18, MeJA 200 μM spray, 48 hours): 0.21 | Cy5/Cy3 Ratios (Upregulation) for JAS (clone 13F16, MeJA 200 μM spray, 24 hours): 0.25 | Cy5/Cy3 Ratios (Upregulation) for JAS (clone 13F16, MeJA 200 μM spray, 48 hours): 0.34 | Cy5/Cy3 Ratios (Upregulation) for JAS (clone 17C11, MeJA 200 μM spray, 24 hours): 0.17 | Cy5/Cy3 Ratios (Upregulation) for JAS (clone 17C11, MeJA 200 μM spray, 48 hours): 0.17 | Cy5/Cy3 Ratios (Upregulation) for JAS (clone 18H16, MeJA 200 μM spray, 24 hours): 3.00 | Cy5/Cy3 Ratios (Upregulation) for JAS (clone 18H16, MeJA 200 μM spray, 48 hours): 0.79 | Cy5/Cy3 Ratios (Upregulation) for JAS (clone 20F18, MeJA 200 μM spray, 24 hours): 0.16 | Cy5/Cy3 Ratios (Upregulation) for JAS (clone 20F18, MeJA 200 μM spray, 48 hours): 0.18 | Cy5/Cy3 Ratios (Upregulation) for JAS (clone 20G16, MeJA 200 μM spray, 24 hours): 0.50 | Cy5/Cy3 Ratios (Upregulation) for JAS (clone 20G16, MeJA 200 μM spray, 48 hours): 0.49 | Cy5/Cy3 Ratios (Upregulation) for JAS (clone 24G4, MeJA 200 μM spray, 24 hours): 0.37 | Cy5/Cy3 Ratios (Upregulation) for JAS (clone 24G4, MeJA 200 μM spray, 48 hours): 0.41 | Cy5/Cy3 Ratios (Upregulation) for JAS (clone 25K14, MeJA 200 μM spray, 24 hours): 3.07 | Cy5/Cy3 Ratios (Upregulation) for JAS (clone 25K14, MeJA 200 μM spray, 48 hours): 1.02

O=C(O)c1ccccc1O [SA, salicylic acid]
Cy5/Cy3 Ratios (Upregulation) for JAS (clone 2I1, SA 5 mM spray, 48 hours): 16.92 | Cy5/Cy3 Ratios (Upregulation) for JAS (clone 4Q3, SA 5 mM spray, 48 hours): 15.26 | Cy5/Cy3 Ratios (Upregulation) for JAS (clone 5P22, SA 5 mM spray, 48 hours): 18.08 | Cy5/Cy3 Ratios (Upregulation) for JAS (clone 6H10, SA 5 mM spray, 48 hours): 19.22 | Cy5/Cy3 Ratios (Upregulation) for JAS (clone 10P7, SA 5 mM spray, 48 hours): 20.96 | Cy5/Cy3 Ratios (Upregulation) for JAS (clone 12F18, SA 5 mM spray, 48 hours): 17.54 | Cy5/Cy3 Ratios (Upregulation) for JAS (clone 17C11, SA 5 mM spray, 48 hours): 18.83 | Cy5/Cy3 Ratios (Upregulation) for JAS (clone 18H16, SA 5 mM spray, 48 hours): 0.70 | Cy5/Cy3 Ratios (Upregulation) for JAS (clone 20F18, SA 5 mM spray, 48 hours): 19.54 | Cy5/Cy3 Ratios (Upregulation) for JAS (clone 20G16, SA 5 mM spray, 48 hours): 13.81 | Cy5/Cy3 Ratios (Upregulation) for JAS (clone 24G4, SA 5 mM spray, 48 hours): 7.73 | Cy5/Cy3 Ratios (Upregulation) for JAS (clone 25K14, SA 5 mM spray, 48 hours): 0.70
